# Measured values: US10179927B2, “Electrochemical detection of microorganisms” (priority 2014, dated 2019)
# Experiments:
# Enterococcus faecalis = assay: Suitability of colorimetric detection compounds for bioelectrochemical detection of Enterococcus faecalis; format: cell-based; conditions: compound used for colorimetric detection of Enterococcus faecalis
# Text: Bioelectroanalytical techniques are emerging as ways to enumerate and scrutinize microbial systems. But there is still need in the art for technologies specifically designed for bioelectroanalytical detection of FIB. […] The latter, in particular, makes them unsuitable in self-powering systems.
# [1] = system: Escherichia coli strain BL21; assay: Chronoamperometric detection of E. coli with electrochemically active reporters in three-electrode electrochemical systems (ECs); format: cell-based; conditions: for Detection time (±std dev): chronoamperometry in ECs, reporter 50 μM
# Method: Resorufin (TCI-Europe), 2-hydroxy-1,4-naphthoquinone (2H14NQ) (TCI-Europe), 5-hydroxy-1,4-naphthoquinone (5H14NQ) (TCI-Europe) and 5,8-dihydroxy-1,4-naphthoquinone (58H14NQ) (Sigma-Aldrich) were obtained commercially and added to M9 medium in their unconjugated form to achieve a working concentration of 50 μM. Resorufin glycoconjugates (resorufin-β-d-galactopyranoside and resorufin-β-d-glucopyranoside) were obtained commercially (Sigma-Aldrich), whereas 2-hydroxy-1,4-naphthoquinone-β-d-galactopyranoside (2H14NQGal) and 2-hydroxy-1,4-naphthoquinone-β-d-glucopyranoside (2H14NQG1u) were specifically synthesized by Sussex Research Ltd. All reporters were added to a final concentration of 50 μM. Stock concentrations (1.0×10^−3 M) of 2H14NQ and 5H14NQ were prepared by first dissolving in 10 μL of 2 M NaOH and then making up to volume in Type II water (Veolia) whereas 58H14NQ (1.0×10^−3 M) was prepared in 1:1 DMSO:Type II water aliquots. Both stock solutions were stored at −20° C. until needed. Conjugated reporters were maintained as 1 mM stock solutions in Type II water and stored at 5° C.
# (§1) Escherichia coli strain BL21 was selected to represent a FIB of human origin that contains the uidA and lacZ genes, i.e. a FC, whereas Aeromonas hydrophila (DSM 6173) is an environmental organism that has the lacZ gene but which is not considered a coliform. All organisms were cultured aerobically for 20 h. E. coli was grown in Luria Bertani (Lennox) medium at 37° C., and A. hydrophile at 30° C. in tryptone soy broth (TSB) in a shaking incubator.
# (§2) The resulting overnight cultures were diluted in sterile modified M9 medium (Na2HPO4.7H2O (126 mM); KH2PO4 (110 mM); NH4Cl (93 mM); NaCl (42 mM); 1 mL/L vitamin stock solution; tryptone 12.5 g/L; HEPES: 6 g/L; and macro nutrients). The carbon source was either D-galacturonic acid or D-glucuronic acid (3.75 g/L) to achieve a final inoculum density in the range of 1.0×10^0, 5.0×10^0, 5.0×10^1, 5.0×10^2, 5.0×10^3, 5.0×10^4, and 5.0×10^5 CFU mL^−1 in both electrochemical system and the bioelectrochemical system.
# Conical ECs with a working volume of 10 mL were used with a customized Teflon cap to accommodate a three electrode configuration along with gas fittings to maintain a moist anaerobic atmosphere. Carbon felt working electrodes (1×1×0.318 cm) (VWR, Singapore) were kept for 24 h in 1 M HCl and stored in deionized (DI) water before use. The electrodes were connected to titanium wire (0.25 mmØ, Sigma-Aldrich) using a nylon nut and bolt. A coiled titanium wire was used as counter electrode and an Ag/AgCl reference electrode (78 mm, 6 mm Outer Ø, Biologic, France) was connected using a 1 M KCl in 1.5% agar salt bridge. The assembled cell was then filled with 1 M KCl solution ending in a 4 mm glass frit (CoralPor™, Biologic, France). The entire assembly was then autoclaved (121° C. for 15 min). Nine mL of degassed modified M9 medium was added to the ECs and supplemented with a reporter to a final concentration of 5.0×10^−5 M in 10 mL working volume. The ECs were then inoculated with the targeted test organism to achieve a final working volume of 10 mL. The headspace was flushed continuously with sterile humidified N2. The ECs were operated at 30° C., 37° C. or 44.5° C. Stirring was maintained continuously with a magnetic stirrer in the dark to prevent photo-bleaching of the light sensitive mediators.
# Following reporter supplement and inoculation with the test microorganism, the ECs were connected to a multichannel potentiostat (Biologic, France) and cyclic voltammetry (CV) and differential pulse voltammetry (DPV) were performed immediately. Data acquisition was recorded by EC-Lab software (Biologic, France). Chronoamperometry (CA) was applied for up to 24 h to detect redox active reporter moieties. A detection event was calculated as 4 times the standard deviation of the baseline and detection times are expressed as the mean of triplicate analyses unless stated otherwise. […]
# [2] = system: mixed culture of E. coli and A. hydrophila; assay: Detection time of mixed culture of A. hydrophila and E. coli in ECs; format: cell-based, Escherichia coli; Aeromonas hydrophila; conditions: 30° C., E. coli constant 5×10^5 CFU mL^−1
# Method: as §1, §2
# Conical ECs with a working volume of 10 mL were used with a customized Teflon cap to accommodate a three electrode configuration along with gas fittings to maintain a moist anaerobic atmosphere. Carbon felt working electrodes (1×1×0.318 cm) (VWR, Singapore) were kept for 24 h in 1 M HCl and stored in deionized (DI) water before use. The electrodes were connected to titanium wire (0.25 mmØ, Sigma-Aldrich) using a nylon nut and bolt. A coiled titanium wire was used as counter electrode and an Ag/AgCl reference electrode (78 mm, 6 mm Outer Ø, Biologic, France) was connected using a 1 M KCl in 1.5% agar salt bridge. […]
# (§3) Following reporter supplement and inoculation with the test microorganism, the ECs were connected to a multichannel potentiostat (Biologic, France) and cyclic voltammetry (CV) and differential pulse voltammetry (DPV) were performed immediately. Data acquisition was recorded by EC-Lab software (Biologic, France). […] A detection event was calculated as 4 times the standard deviation of the baseline and detection times are expressed as the mean of triplicate analyses unless stated otherwise. […]
# A. hydrophila = assay: Electrochemical detection of A. hydrophila in ECs; format: cell-based, Aeromonas hydrophila; conditions: both 30° C. and 37° C. (FIG. 5)
# Method: as §1
# Conical ECs with a working volume of 10 mL were used with a customized Teflon cap to accommodate a three electrode configuration along with gas fittings to maintain a moist anaerobic atmosphere. Carbon felt working electrodes (1×1×0.318 cm) (VWR, Singapore) were kept for 24 h in 1 M HCl and stored in deionized (DI) water before use. The electrodes were connected to titanium wire (0.25 mmØ, Sigma-Aldrich) using a nylon nut and bolt. […]
# as §3
Compound,Suitability for bioelectrochemical detection (Enterococcus faecalis),"Detection time (±std dev) ([1]; 30° C., inoculum 5 × 10^2 CFU mL^−1)","Detection time (±std dev) ([1]; 30° C., inoculum 5 × 10^3 CFU mL^−1)","Detection time (±std dev) ([1]; 30° C., inoculum 5 × 10^4 CFU mL^−1)","Detection time (±std dev) ([1]; 30° C., inoculum 5 × 10^5 CFU mL^−1)","Detection times for E. coli ([1]; 30° C., inoculum sizes 5×10^5-5×10^2) [min]","Detection time (±std dev) ([1]; 37° C., inoculum 5 × 10^2 CFU mL^−1)","Detection time (±std dev) ([1]; 37° C., inoculum 5 × 10^3 CFU mL^−1)","Detection time (±std dev) ([1]; 37° C., inoculum 5 × 10^4 CFU mL^−1)","Detection time (±std dev) ([1]; 37° C., inoculum 5 × 10^5 CFU mL^−1)","Detection time ([1]; inoculum size 5×10^3 CFU mL^−1, ECs) [h]","Detection of E. coli achieved in (time) ([1]; inoculum sizes between 5×10^5 and 5×10^3 CFU mL^−1, ECs, triplicate) [h]","Detection time, mixed culture ([2]; A. hydrophila 5×10^2 CFU mL^−1 (FIG. 5)) [min]","Detection time, mixed culture ([2]; A. hydrophila 5×10^5 CFU mL^−1 (FIG. 5)) [min]",Electrochemical detection of A. hydrophila (A. hydrophila)
Cc1cc(=O)oc2cc(OC3O[C@H](CO)[C@@H](O)[C@H](O)[C@H]3O)ccc12 (stereo partly drawn) [4-methylumbeliferone-glucoside],not well suited for bioelectrochemical detection,,,,,,,,,,,,,,
"O=c1ccc2nc3ccc(O[C@@H]4O[C@H](CO)[C@H](O)[C@H](O)[C@H]4O)cc3oc-2c1 [ResGal, resorufin-β-d-galactopyranoside]",,521(±121) minutes,372(±82) minutes,218(±31) minutes,150(±56) minutes,132 to 521,734(±188) minutes,477(±23) minutes,309(±55) minutes,260 (±55) minutes,~8,4 to 10,~450,~280,could be detected electrochemically
